# According to ChEMBL document CHEMBL1143211, “Inhibitors of proteases and amide hydrolases that employ an alpha-ketoheterocycle as a key enabling functionality” (Bioorg Med Chem, 2008):
# What was measured:
# Coagulation factor X = Coagulation factor X (Homo sapiens, UniProt P00742); experiment: Inhibition of human factor 10a
# Plasma kallikrein = Plasma kallikrein (Homo sapiens, UniProt P03952); experiment: Inhibition of kallikrein
# [1] = Selectivity for human alpha-thrombin over bovine trypsin
# [2] = Inhibition of bovine trypsin; set-up: species or system Bos taurus
# Cathepsin S = Cathepsin S (Homo sapiens, UniProt P25774); experiment: Inhibition of human recombinant cathepsin S
# Cathepsin S, sequence (P25774 whole entry): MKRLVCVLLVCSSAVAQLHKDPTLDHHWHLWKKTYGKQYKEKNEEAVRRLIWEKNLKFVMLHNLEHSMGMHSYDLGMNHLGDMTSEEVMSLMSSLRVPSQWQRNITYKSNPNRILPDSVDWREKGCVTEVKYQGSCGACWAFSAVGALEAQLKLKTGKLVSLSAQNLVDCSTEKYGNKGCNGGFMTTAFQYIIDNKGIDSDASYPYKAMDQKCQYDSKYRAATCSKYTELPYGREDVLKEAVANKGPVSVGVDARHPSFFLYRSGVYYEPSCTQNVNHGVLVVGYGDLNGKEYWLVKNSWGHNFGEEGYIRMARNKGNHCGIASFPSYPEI
# Cathepsin B = Cathepsin B (Homo sapiens, UniProt P07858); experiment: Inhibition of human liver cathepsin B
# Cathepsin K = biological target: T1, Cathepsin K (Homo sapiens, UniProt P43235); experiment: Inhibition of human recombinant cathepsin K
# T1 sequence (P43235 whole entry): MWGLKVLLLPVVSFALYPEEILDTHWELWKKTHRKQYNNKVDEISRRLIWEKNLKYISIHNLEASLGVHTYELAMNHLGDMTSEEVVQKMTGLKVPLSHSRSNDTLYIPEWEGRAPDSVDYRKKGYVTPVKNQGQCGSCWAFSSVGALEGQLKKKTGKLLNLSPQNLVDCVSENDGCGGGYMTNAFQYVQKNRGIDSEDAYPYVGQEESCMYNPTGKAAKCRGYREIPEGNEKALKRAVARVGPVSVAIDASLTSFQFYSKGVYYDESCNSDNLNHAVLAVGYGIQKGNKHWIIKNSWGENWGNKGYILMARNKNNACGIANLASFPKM
# Procathepsin L = Procathepsin L (Homo sapiens, UniProt P07711); experiment: Inhibition of human recombinant cathepsin L
# Procathepsin L, sequence (P07711 whole entry): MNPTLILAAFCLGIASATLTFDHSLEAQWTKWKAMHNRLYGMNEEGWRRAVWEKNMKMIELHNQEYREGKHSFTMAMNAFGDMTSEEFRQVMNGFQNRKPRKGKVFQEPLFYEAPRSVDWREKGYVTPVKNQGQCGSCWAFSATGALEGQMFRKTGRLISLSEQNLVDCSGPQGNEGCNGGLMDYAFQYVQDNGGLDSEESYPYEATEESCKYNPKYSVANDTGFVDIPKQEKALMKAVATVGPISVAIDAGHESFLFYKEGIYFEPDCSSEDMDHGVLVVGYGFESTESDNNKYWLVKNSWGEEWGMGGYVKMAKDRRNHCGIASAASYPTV
# [3] = Inhibition of dengue virus NS3 protease
# [4] = Oral bioavailability in rat; assay type: ADME, organism-based; settings: in vivo
# Granzyme B = Granzyme B (Homo sapiens, UniProt P10144); experiment: Inhibition of granzyme B
# Granzyme B, sequence (P10144 whole entry): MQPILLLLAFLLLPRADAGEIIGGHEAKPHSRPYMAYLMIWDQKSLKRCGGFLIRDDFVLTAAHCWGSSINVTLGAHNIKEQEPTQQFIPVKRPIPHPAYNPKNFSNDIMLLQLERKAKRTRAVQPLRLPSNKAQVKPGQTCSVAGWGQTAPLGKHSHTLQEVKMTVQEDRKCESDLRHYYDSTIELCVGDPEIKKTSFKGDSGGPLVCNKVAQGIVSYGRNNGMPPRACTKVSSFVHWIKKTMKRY
# Prothrombin = Prothrombin (Homo sapiens, UniProt P00734); experiment: Inhibition of human alpha-thrombin
# [5] = Inhibition of trypsin-like activity of human 20S proteasome
# [6] = Inhibition of post-glutamyl peptide hydrolase-like activity of human 20S proteasome
# [7] = Inhibition of human beta-tryptase
# [8] = Selectivity for rat FAAH over triacylglycerol hydrolase
# [9] = biological target: T2, Fatty-acid amide hydrolase 1 (Rattus norvegicus, UniProt P97612)
# T2 sequence (P97612 whole entry): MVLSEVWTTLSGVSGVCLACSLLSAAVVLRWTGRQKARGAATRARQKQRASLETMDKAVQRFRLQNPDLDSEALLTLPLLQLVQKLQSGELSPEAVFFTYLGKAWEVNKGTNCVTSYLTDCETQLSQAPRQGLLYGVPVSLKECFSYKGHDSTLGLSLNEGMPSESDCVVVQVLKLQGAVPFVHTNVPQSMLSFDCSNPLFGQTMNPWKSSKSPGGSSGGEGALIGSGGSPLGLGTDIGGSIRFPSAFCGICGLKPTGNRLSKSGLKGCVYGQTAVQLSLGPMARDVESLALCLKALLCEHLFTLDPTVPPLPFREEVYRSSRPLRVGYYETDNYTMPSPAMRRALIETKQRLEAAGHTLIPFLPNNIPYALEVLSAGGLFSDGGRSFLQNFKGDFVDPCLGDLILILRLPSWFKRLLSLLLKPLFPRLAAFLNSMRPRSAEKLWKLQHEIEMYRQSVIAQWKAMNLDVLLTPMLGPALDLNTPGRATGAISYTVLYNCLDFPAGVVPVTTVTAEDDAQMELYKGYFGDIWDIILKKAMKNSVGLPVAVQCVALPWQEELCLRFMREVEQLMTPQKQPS
# Hamster = experiment: Efficacy in po dosed hamster acute lung injury model; assay type: functional; settings: Cricetinae
# Homo sapiens = species on record: Homo sapiens; experiment: Selectivity for human alpha-thrombin over human trypsin
# Plasma kallikrein, sequence (P03952 20-390 limits assumed): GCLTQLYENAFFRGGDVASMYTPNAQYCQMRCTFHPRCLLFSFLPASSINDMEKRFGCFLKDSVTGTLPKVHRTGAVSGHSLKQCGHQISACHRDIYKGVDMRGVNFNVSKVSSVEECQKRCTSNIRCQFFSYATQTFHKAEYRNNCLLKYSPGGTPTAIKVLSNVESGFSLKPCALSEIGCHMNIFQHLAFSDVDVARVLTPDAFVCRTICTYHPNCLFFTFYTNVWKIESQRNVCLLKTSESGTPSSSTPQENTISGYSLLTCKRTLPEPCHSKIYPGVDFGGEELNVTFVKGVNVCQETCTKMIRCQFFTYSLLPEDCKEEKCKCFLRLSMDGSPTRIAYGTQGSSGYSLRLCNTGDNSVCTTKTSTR
# Plasma kallikrein, sequence (P03952 391-638 limits assumed): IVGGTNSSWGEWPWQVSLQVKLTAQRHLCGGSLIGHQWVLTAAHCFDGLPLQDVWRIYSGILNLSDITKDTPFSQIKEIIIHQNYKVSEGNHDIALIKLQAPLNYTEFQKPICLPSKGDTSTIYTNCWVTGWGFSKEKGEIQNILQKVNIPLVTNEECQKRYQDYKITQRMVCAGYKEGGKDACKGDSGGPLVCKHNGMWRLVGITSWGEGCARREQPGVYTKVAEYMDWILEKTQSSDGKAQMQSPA
# Coagulation factor X, sequence (P00742 41-179 limits assumed): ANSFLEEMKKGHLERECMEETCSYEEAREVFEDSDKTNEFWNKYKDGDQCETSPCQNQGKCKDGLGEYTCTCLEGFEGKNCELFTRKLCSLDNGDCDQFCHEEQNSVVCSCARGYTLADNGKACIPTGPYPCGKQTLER
# Coagulation factor X, sequence (P00742 235-488 limits assumed): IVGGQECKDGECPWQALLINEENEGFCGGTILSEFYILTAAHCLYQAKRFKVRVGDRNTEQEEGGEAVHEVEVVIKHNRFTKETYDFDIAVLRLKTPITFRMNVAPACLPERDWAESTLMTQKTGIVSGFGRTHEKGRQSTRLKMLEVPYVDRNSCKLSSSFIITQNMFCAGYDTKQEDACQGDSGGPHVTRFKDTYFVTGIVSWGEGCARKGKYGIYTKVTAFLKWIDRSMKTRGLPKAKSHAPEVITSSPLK
structure (smiles),measurement,setting,value
N=C(N)NCCC[C@H](NC(=O)CNC(=O)[C@@H](CCCNC(=N)N)NS(=O)(=O)CCc1ccccc1)C(=O)c1nccs1,IC50,Coagulation factor X,1 nM
same,IC50,Plasma kallikrein,120 nM
CN[C@H](Cc1ccccc1)C(=O)N1CCC[C@H]1C(=O)N[C@@H](CCCN=C(N)N)C(=O)c1nc2c(s1)CCCC2,Ratio Ki,[1],15
same,Ki,[2],4.4 nM
CCCC[C@H](NC(=O)OCc1ccccc1)C(=O)c1nnc(-c2ccco2)o1,Ki,Cathepsin S,2000 nM
same,Ki,Cathepsin B,34000 nM
same,Ki,Cathepsin K,3000 nM
same,Ki,Procathepsin L,28000 nM
CCCC[C@H](NC(=O)c1ccccc1)C(=O)N[C@@H](CCCCN)C(=O)N[C@@H](CCCNC(=N)N)C(=O)N[C@@H](CCCNC(=N)N)C(=O)c1nccs1,Ki,[3],43000 nM
NCCCC[C@H](NC(=O)[C@@H]1CCCN1C(=O)[C@@H](CC1CCCCC1)NCC(=O)O)C(=O)c1ncco1,bioavailability,[4],< 5%
CC[C@H](C)[C@H](NC(C)=O)C(=O)N[C@H]1CCc2cccc3c2N(C1=O)[C@H](C(=O)N[C@@H](CC(=O)O)C(=O)c1nc2ccccc2s1)C3,Ki,Granzyme B,85 nM
N=C(N)NCCC[C@H](NC(=O)[C@@H]1CC[C@@H]2CC[C@@](N)(Cc3ccccc3)C(=O)N21)C(=O)c1nc2ccccc2s1,bioavailability,[4],2%
same,Ki,Prothrombin,0.85 nM
NCCCC[C@H](NC(=O)[C@@H]1CCCN1C(=O)[C@H](N)CC1CCCCC1)C(=O)c1nccs1,bioavailability,[4],23%
Cc1ccc(S(=O)(=O)N[C@@H](CC(=O)NCC(C)(C)C)C(=O)N[C@@H](C)C(=O)N[C@@H](CC(C)C)C(=O)c2nnc(-c3ccc(N(C)C)cc3)o2)cc1,Ki,[5],290000 nM
same,Ki,[6],> 300000 nM
CS(=O)(=O)N1CCC[C@H]1C(=O)N[C@@H](CCCNC(=N)N)C(=O)c1nc2ccccc2s1,Ki,[7],33 nM
same,Ki,[2],38 nM
CCCC[C@H](NC(=O)c1ccccc1)C(=O)N[C@@H](CCCCN)C(=O)N[C@@H](CCCNC(=N)N)C(=O)N[C@@H](CCCNC(=N)N)C(=O)c1nc2ccccc2o1,Ki,[3],83000 nM
CCCCCCCC/C=C\CCCCCCCC(=O)c1nnc(-c2ccccn2)o1,Selectivity ratio,[8],5000
CC[C@H](C)[C@H](NC(C)=O)C(=O)N[C@H]1CCc2cccc3c2N(C1=O)[C@H](C(=O)N[C@H](C=O)CC(=O)O)C3,Ki,Granzyme B,8 nM
CN[C@H](Cc1ccccc1)C(=O)N1CCC[C@H]1C(=O)N[C@@H](CCCN=C(N)N)C(=O)c1nc2ccccc2o1,Ratio Ki,[1],30
same,Ki,[2],13 nM
Cc1ccc(S(=O)(=O)N[C@@H](CC(=O)NCC(C)(C)C)C(=O)N[C@](C)(CO)C(=O)N[C@@H](CC(C)C)C(=O)c2nnc(-c3ccccc3)o2)cc1,Ki,[5],> 900000 nM
same,Ki,[6],> 900000 nM
Cc1ccnc(-c2cnc(C(=O)CCCCCCc3ccccc3)o2)c1,Ki,[9],0.6 nM
same,Selectivity ratio,[8],2000
N=C(N)NCCC[C@H](NC(=O)[C@@H]1CCCN1C(=O)c1ccccc1)C(=O)c1nc2ccccc2s1,Ki,[7],250 nM
same,Ki,[2],160 nM
CCOC(=O)c1csc(C(=O)[C@H](CCCNC(=N)N)NC(=O)[C@@H]2CCCN2C(=O)[C@@H](Cc2ccccc2)NC)n1,Ki,Prothrombin,4.5 nM
same,Ki,[2],5.4 nM
CC(C)C[C@H](NC(=O)C1CCNCC1)C(=O)N[C@@H](CCc1ccccc1)C(=O)c1nc2ccccc2o1,Ki,Cathepsin B,2100 nM
same,Ki,Cathepsin K,9.5 nM
same,Ki,Procathepsin L,30 nM
COC(=O)N[C@H](C(=O)N1CCC[C@H]1C(=O)N[C@H](C(=O)c1nn(-c2ccc(N(C)C)cc2)c(=O)o1)C(C)C)C(C)C,ED50,Hamster,7.5 mg/kg
CCCC[C@H](NC(=O)OCC(C)C)C(=O)c1nnc(-c2ccco2)o1,Ki,Cathepsin S,380 nM
same,Ki,Cathepsin B,16000 nM
same,Ki,Cathepsin K,500 nM
same,Ki,Procathepsin L,14000 nM
CN[C@H](Cc1ccccc1)C(=O)N1CCC[C@H]1C(=O)N[C@@H](CCCNC(=N)N)C(=O)c1nccn1C,Ki,[2],5800 nM
C=CCOC(=O)N[C@@H](CC1CCNC1)C(=O)c1noc(Cc2ccc(C(=O)NC3Cc4ccccc4C3)cc2)n1 (stereo partly drawn),Selectivity ratio,Homo sapiens,> 50
same,Ki,[7],25 nM
CN[C@H](Cc1ccccc1)C(=O)N1CCC[C@H]1C(=O)N[C@@H](CCCNC(=N)N)C(=O)c1ccccn1,Ki,[2],73 nM
